The values that follow come from ChEMBL document CHEMBL1201862, “PubChem BioAssay data set” (2004).

SMILES strings stand for the structures. The source made the active and inactive calls.

The nature of test [1]: Counterscreen for AddAB inhibitors: absorbance-based bacterial cell-based high throughput dose response assay for inhibitors of bacterial viability. [Related pubchem assays (depositor defined):AID435030, AID449728, AID449731, AID488942, AID488955, AID488956]. Type of test: functional. (Counterscreens check selectivity or assay interference.)
A short description of test [2]: NIH-3T3 fibroblast cytotoxicity, dose response, cytotoxicity control, cell-based, fluorescence, Alamar Blue, secondary assay (AID 2327).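 Further: NIH-3T3 mouse fibroblasts cultured with fluconazole at 8 µg/mL.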 Type of test: functional.
Test [3] concerns the target ATP-dependent molecular chaperone HSP82 (Candida albicans (strain WO-1) (Yeast), UniProt C4YTQ8). Briefly: loss of DOC-induced GRE-beta-galactosidase reporter signal, dose response, Hsp90 inhibitor project, S. cerevisiae, luminescence (AID 2400).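 Further: beta-galactosidase luminescence from glucocorticoid response element reporter as proxy for Hsp90 function; inhibitor potency where signal loss means Hsp90 inhibition.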 Type of test: functional, cell-based.
The test system of the next test is BJ. Briefly: cells. Format: functional, cell-based. The conditions noted are these: Homo sapiens.
The target in test [4] is Serine/threonine-protein kinase PAK 4 (Homo sapiens, UniProt O96013). Format: functional.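 Further: value obtained within a kinome profiling panel in which PAK4 was one of the panel members.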
Test [5] concerns the target Epidermal growth factor receptor (Homo sapiens, UniProt P00533).
The target of test [6] is Calcium/calmodulin-dependent protein kinase type II subunit gamma (Homo sapiens, UniProt Q13555). Format: functional.
The target in test [7] is Serine/threonine-protein kinase pim-1 (Homo sapiens, UniProt P11309). Format: functional.
For the next test, the target named is Ephrin type-A receptor 2 (Homo sapiens, UniProt P29317). Type of test: functional.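 Further: EPHA2 tested as one member of a kinome-wide kinase panel.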
The target in test [8] is Serine/threonine-protein kinase pim-2 (Homo sapiens, UniProt Q9P1W9). Format: functional.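 Further: value comes from a broad kinase panel profiling study in which PIM2 was one of the panel members.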
Test [9] addresses High affinity nerve growth factor receptor (Homo sapiens, UniProt P04629). Type of test: functional.
The target in test [10] is Receptor tyrosine-protein kinase erbB-2 (Homo sapiens, UniProt P04626). Description: Navigating the Kinome. Panel member name: ERBB2. Type of test: functional.
Test [11] addresses ALK tyrosine kinase receptor (Homo sapiens, UniProt Q9UM73). Format: functional.
Test [12] concerns the target Non-receptor tyrosine-protein kinase TYK2 (Homo sapiens, UniProt P29597). Format: functional.
For test [13], the target named is Receptor tyrosine-protein kinase erbB-4 (Homo sapiens, UniProt Q15303). Format: functional.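 Further: ERBB4 member of a kinome-wide kinase profiling panel.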
A further test concerns the target SRSF protein kinase 1 (Homo sapiens, UniProt Q96SB4). Type of test: functional.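 Further: measured as one member of a kinome-wide kinase profiling panel.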
In test [14] the target is Glycogen synthase kinase-3 alpha (Homo sapiens, UniProt P49840). Type of test: functional.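 Further: GSK3A result taken from a broad kinome-wide kinase panel.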
Test [15] concerns the target Death-associated protein kinase 3 (Homo sapiens, UniProt O43293). Format: functional.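 Further: measured as one member of a kinome-wide profiling panel.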
In test [16] the target is MAP kinase-activated protein kinase 5 (Homo sapiens, UniProt Q8IW41). Type of test: functional.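 Further: measured as one member of a kinome panel.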
Test [17] has as its target Hepatocyte growth factor receptor (Homo sapiens, UniProt P08581). Format: functional.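 Further: kinase panel profiling across the kinome, with MET as the panel member.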
Test [18] concerns the target Mitogen-activated protein kinase kinase kinase kinase 5 (Homo sapiens, UniProt Q9Y4K4). Format: functional.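 Further: measured as one member of a kinome-spanning kinase panel.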
For test [19], the target named is Serine/threonine-protein kinase Chk2 (Homo sapiens, UniProt O96017). Format: functional.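 Further: CHEK2 entry within a kinome-wide screening panel.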
Test [20] has as its target Vascular endothelial growth factor receptor 3 (Homo sapiens, UniProt P35916). Format: functional.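 Further: value from a kinome-wide profiling panel, with FLT4 as the panel member.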
Test [21] addresses Tyrosine-protein kinase FRK (Homo sapiens, UniProt P42685). Type of test: functional.
Test [22] has as its target Serine/threonine-protein kinase Nek2 (Homo sapiens, UniProt P51955). Type of test: functional.
The target in test [23] is Megakaryocyte-associated tyrosine-protein kinase (Homo sapiens, UniProt P42679). Format: functional.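 Further: affinity measured as one member of a kinase panel (Navigating the Kinome) against MATK.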
In test [24] the target is Dual specificity tyrosine-phosphorylation-regulated kinase 1A (Homo sapiens, UniProt Q13627). Type of test: functional.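 Further: measured against DYRK1A as one member of a broad kinome profiling panel.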
Test [25] has as its target Vascular endothelial growth factor receptor 1 (Homo sapiens, UniProt P17948). Format: functional.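 Further: measured within a kinome-wide profiling panel, FLT1 as the panel member.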
Test [26] concerns the target cAMP-dependent protein kinase catalytic subunit PRKX (Homo sapiens, UniProt P51817). Type of test: functional.
Test [27] addresses Phosphorylase b kinase gamma catalytic chain, liver/testis isoform (Homo sapiens, UniProt P15735). Type of test: functional.
The target of test [28] is Calcium/calmodulin-dependent protein kinase type II subunit beta (Homo sapiens, UniProt Q13554). Format: functional.
Test [29] addresses MAP kinase-activated protein kinase 3 (Homo sapiens, UniProt Q16644). Format: functional.
In test [30] the target is Protein kinase C zeta type (Homo sapiens, UniProt Q05513). Format: functional.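 Further: measured as one member of a broad kinase profiling panel.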
The target in test [31] is Proto-oncogene tyrosine-protein kinase receptor Ret (Homo sapiens, UniProt P07949). Format: functional.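 Further: measured within a kinome-wide profiling panel, RET as the panel member.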
In test [32] the target is Ribosomal protein S6 kinase beta-1 (Homo sapiens, UniProt P23443). Format: functional.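 Further: measured as one member of a kinome-wide profiling panel.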
For test [33], the target named is Interleukin-1 receptor-associated kinase 4 (Homo sapiens, UniProt Q9NWZ3). Type of test: functional.
In test [34] the target is Mitogen-activated protein kinase 12 (Homo sapiens, UniProt P53778). Format: functional.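 Further: measured as one member of a kinome-wide kinase profiling panel.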
Test [35] addresses Casein kinase I isoform delta (Homo sapiens, UniProt P48730). Format: functional.
For test [36], the target named is Casein kinase II subunit alpha (Homo sapiens, UniProt P68400). Format: functional.
The target in test [37] is Serine/threonine-protein kinase 17A (Homo sapiens, UniProt Q9UEE5). Format: functional.
The target in test [38] is Tyrosine-protein kinase ITK/TSK (Homo sapiens, UniProt Q08881). Format: functional.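 Further: affinity for ITK measured as one member of a broad kinase panel profiling binding across the kinome.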
In test [39] the target is Serine/threonine-protein kinase PAK 1 (Homo sapiens, UniProt Q13153). Type of test: functional.
Test [40] has as its target Cyclin-dependent kinase 5 (Homo sapiens, UniProt Q00535). Type of test: functional.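 Further: CDK5 measured as one member of a kinase profiling panel.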
The target in test [41] is Glycogen synthase kinase-3 beta (Homo sapiens, UniProt P49841). Type of test: functional.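 Further: value comes from a broad kinome profiling panel, with GSK3B as the panel member.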
Test [42] has as its target Fibroblast growth factor receptor 1 (Homo sapiens, UniProt P11362). Type of test: functional.

Chain of Serine/threonine-protein kinase PAK 4 (O96013 whole entry): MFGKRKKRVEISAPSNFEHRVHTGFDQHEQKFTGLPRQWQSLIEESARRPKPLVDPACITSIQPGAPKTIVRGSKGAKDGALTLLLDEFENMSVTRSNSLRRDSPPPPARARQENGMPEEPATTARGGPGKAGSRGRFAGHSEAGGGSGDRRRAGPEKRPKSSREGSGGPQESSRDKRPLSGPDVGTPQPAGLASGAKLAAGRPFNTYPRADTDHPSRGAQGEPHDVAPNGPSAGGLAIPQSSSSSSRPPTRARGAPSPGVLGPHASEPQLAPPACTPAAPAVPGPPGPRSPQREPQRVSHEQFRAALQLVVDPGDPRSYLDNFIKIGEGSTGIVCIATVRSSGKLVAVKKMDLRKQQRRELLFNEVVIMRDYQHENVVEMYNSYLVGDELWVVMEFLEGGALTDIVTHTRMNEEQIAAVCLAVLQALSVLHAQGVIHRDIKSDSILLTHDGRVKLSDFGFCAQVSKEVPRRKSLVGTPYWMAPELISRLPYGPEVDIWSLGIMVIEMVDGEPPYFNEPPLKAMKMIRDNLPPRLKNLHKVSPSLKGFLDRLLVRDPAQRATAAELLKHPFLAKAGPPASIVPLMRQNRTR
Chain of Serine/threonine-protein kinase pim-1 (P11309 whole entry): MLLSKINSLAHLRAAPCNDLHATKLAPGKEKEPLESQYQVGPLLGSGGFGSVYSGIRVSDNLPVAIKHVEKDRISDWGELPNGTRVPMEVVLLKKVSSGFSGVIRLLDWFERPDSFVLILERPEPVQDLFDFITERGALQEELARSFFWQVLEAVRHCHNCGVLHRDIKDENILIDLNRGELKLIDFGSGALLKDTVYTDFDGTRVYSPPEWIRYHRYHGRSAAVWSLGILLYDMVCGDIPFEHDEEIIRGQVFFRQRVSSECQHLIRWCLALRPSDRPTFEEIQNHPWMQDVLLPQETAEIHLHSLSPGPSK
Chain of Protein kinase C zeta type (Q05513 whole entry): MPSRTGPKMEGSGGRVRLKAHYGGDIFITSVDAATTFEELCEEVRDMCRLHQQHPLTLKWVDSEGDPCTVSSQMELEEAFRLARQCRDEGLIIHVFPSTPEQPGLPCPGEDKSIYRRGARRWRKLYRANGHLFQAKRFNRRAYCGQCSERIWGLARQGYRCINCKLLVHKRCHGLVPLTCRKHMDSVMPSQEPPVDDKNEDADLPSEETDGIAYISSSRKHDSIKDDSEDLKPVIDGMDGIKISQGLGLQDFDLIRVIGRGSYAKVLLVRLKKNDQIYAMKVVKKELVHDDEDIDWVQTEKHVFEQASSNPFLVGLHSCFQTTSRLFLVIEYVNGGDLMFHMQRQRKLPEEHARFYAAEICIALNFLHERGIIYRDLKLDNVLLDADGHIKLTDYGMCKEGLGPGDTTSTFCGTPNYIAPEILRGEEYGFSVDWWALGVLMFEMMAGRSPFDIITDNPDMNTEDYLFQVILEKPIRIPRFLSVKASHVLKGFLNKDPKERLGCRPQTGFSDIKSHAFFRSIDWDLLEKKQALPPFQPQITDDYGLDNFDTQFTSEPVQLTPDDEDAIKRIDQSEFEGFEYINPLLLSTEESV
Chain of ATP-dependent molecular chaperone HSP82 (C4YTQ8 whole entry): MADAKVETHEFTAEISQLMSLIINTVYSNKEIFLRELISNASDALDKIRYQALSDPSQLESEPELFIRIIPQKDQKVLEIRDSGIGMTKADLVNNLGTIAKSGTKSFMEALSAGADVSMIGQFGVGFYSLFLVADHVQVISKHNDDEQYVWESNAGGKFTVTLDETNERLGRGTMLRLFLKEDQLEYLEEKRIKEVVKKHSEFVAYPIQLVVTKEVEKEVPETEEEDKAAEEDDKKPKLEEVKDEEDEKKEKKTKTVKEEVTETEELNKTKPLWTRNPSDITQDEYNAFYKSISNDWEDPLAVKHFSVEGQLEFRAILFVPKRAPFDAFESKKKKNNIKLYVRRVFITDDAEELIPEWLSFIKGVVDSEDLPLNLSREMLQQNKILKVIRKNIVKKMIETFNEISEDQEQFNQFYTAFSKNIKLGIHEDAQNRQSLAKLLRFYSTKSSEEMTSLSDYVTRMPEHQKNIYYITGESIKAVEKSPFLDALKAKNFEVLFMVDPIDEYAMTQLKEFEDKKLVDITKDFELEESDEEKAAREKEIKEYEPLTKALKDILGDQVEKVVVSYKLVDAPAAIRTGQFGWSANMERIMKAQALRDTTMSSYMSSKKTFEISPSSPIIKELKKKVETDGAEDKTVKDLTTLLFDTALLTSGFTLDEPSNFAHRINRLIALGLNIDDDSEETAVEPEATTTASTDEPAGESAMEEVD
Chain of Receptor tyrosine-protein kinase erbB-2 (P04626 whole entry): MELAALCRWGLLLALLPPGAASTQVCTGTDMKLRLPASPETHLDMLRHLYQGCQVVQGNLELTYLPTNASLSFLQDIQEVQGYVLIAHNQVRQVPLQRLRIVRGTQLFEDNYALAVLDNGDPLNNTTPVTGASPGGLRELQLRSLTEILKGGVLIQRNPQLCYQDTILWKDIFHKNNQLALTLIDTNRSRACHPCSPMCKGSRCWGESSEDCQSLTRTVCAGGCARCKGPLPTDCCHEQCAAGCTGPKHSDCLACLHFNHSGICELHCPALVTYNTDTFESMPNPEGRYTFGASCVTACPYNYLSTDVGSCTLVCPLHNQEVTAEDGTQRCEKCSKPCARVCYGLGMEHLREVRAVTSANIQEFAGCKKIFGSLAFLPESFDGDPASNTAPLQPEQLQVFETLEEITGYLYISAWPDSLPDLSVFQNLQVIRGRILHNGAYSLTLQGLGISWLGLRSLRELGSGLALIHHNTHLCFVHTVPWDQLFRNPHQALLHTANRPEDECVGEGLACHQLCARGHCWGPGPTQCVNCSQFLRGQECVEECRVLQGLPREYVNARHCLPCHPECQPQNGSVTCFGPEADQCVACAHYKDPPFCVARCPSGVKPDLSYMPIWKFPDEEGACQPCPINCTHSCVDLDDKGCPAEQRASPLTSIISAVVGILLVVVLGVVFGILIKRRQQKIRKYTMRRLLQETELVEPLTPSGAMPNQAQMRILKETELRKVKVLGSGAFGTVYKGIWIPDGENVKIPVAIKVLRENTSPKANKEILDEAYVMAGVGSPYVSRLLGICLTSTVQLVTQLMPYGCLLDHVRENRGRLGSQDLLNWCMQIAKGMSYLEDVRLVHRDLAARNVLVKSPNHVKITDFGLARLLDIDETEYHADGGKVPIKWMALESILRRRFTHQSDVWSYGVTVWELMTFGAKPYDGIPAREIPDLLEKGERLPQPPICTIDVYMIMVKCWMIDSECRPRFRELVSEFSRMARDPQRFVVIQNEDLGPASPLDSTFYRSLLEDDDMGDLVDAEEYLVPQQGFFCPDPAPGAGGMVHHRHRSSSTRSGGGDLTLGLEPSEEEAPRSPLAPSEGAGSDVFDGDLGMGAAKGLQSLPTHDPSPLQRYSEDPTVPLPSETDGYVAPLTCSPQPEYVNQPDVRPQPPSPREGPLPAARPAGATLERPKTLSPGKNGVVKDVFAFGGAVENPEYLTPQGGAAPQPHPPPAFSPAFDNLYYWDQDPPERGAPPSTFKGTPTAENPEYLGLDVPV
Chain of ALK tyrosine kinase receptor (Q9UM73 whole entry): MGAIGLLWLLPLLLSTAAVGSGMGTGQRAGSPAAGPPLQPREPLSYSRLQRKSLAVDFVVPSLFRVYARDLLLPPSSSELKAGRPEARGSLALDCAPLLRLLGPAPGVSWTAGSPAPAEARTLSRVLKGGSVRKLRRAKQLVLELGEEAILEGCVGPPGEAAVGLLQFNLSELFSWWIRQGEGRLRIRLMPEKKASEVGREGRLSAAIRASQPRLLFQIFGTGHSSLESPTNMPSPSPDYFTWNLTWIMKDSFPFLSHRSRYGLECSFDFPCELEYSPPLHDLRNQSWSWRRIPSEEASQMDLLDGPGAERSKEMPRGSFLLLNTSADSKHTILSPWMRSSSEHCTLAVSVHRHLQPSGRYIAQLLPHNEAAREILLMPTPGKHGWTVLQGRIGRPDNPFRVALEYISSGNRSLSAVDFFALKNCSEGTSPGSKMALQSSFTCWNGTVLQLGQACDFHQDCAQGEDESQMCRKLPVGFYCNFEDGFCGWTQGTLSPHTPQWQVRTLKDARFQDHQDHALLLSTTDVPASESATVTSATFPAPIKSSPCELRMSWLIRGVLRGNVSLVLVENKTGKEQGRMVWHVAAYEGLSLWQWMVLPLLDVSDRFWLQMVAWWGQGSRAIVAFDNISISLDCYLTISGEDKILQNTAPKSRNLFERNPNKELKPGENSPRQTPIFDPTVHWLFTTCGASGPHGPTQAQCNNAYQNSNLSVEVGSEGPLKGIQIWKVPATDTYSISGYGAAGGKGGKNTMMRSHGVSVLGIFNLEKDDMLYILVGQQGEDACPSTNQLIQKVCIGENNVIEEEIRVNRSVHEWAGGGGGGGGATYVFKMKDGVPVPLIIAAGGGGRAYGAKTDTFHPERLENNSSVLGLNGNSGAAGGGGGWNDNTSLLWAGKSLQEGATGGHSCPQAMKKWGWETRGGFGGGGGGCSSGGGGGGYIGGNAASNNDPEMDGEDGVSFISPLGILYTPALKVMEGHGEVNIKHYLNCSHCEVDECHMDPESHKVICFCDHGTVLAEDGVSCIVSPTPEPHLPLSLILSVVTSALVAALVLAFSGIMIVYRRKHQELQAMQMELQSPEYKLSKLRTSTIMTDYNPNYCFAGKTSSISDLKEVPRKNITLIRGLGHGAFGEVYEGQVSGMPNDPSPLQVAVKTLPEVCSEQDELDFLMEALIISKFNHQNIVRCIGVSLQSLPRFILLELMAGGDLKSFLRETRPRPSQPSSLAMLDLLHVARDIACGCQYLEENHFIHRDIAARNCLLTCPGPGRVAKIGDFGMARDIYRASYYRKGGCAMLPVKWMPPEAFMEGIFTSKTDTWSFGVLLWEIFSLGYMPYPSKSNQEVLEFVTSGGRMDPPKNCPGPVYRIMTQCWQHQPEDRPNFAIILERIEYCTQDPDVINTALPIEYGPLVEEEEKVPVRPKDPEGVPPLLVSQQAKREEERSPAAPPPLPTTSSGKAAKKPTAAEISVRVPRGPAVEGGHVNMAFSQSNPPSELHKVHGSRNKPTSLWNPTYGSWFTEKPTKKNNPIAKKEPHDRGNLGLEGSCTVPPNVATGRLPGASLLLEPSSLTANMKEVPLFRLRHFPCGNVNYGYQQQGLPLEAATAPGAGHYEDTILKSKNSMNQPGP

As for `COc1ccc(-c2nnc(NC(=O)c3ccc(F)cc3)o2)cc1`, the IC50 (as a rule, the concentration at which inhibition is half-maximal) in test [1] is > 118 µM (inactive). Further, the EC50 (as a rule, the concentration needed to bring the measured effect to its halfway point) in test [2] was > 150 µM (inactive); in test [3] it was > 150 µM (inactive); in the test with BJ, 30.7 µM (active).
With `CCn1c(-c2nonc2N)nc2cnc(Oc3cccc(NC(=O)c4ccc(OCCN5CCOCC5)cc4)c3)cc21` [GSK-269962A], the Ki (in general, a dissociation constant, usually derived from enzyme kinetics or from competition with a known ligand) in test [4] is > 5.01 µM (inactive); in [5] it was > 2 µM (inactive); in test [6], > 6.31 µM (inactive); in test [7], 0.316 µM (active); at Ephrin type-A receptor 2, > 3.16 µM (inactive); in [8], > 1.58 µM (inactive). Moreover, the Ki in test [9] is > 2.51 µM (inactive); in [10] it was > 1.58 µM (inactive); in test [11] it was > 1.26 µM (inactive); in test [12] it was > 2 µM (inactive); in test [13], > 3.98 µM (inactive); at SRSF protein kinase 1, 7.94 µM (active). In addition, the Ki in test [14] is 0.0501 µM (active); in test [15] it was 0.501 µM (active); in [16] it was > 1.58 µM (inactive); in test [17], > 3.16 µM (inactive); in test [18], 1.58 µM (active); in test [19], > 1.58 µM (inactive). In addition, the inhibitory constant (Ki) is 3.16 µM (active) in [20]; > 2.51 µM (inactive) in [21]; > 10 µM (inactive) in test [22]; > 2 µM (inactive) in [23]; > 6.31 µM (inactive) in [24]; > 0.398 µM (inactive) in test [25]. The Ki in test [26] was 0.0501 µM (active); in [27], > 5.01 µM (inactive); in test [28], 7.94 µM (active); in test [29] it was > 10 µM (inactive); in [30], 0.0251 µM (active); in [31], > 1.26 µM (inactive). For the same molecule, the Ki is 0.00316 µM (active) in [32]; > 10 µM (inactive) in test [33]; > 6.31 µM (inactive) in test [34]; > 7.94 µM (inactive) in test [35]; > 6.31 µM (inactive) in [36]; 0.158 µM (active) in [37]. Further, the Ki in test [38] was > 1.58 µM (inactive); in [39] it was > 10 µM (inactive); in test [40] it was > 10 µM (inactive); in test [41], 0.0631 µM (active); in test [42], > 5.01 µM (inactive).
